Measurements published in publication PMC12844705, “Multitarget Mechanisms of (‒)‒Epigallocatechin-3-Gallate Against MRSA: From SraP L-Lectin Targeting to Synergistic Antibiotic Effects” (Pathogens, 2026).

Biological target: T1, Serine-rich adhesin for platelets (SraP), L-Lectin module (Staphylococcus aureus, UniProt Q8NUJ3)
T1 construct: SraP L-Lectin domain (L-Lectin of MW2)
Test: SPR (Biacore T200, protein amine-coupled on CM5 chip, kinetic fit)
Format: binding

T1 sequence (Q8NUJ3 245-480): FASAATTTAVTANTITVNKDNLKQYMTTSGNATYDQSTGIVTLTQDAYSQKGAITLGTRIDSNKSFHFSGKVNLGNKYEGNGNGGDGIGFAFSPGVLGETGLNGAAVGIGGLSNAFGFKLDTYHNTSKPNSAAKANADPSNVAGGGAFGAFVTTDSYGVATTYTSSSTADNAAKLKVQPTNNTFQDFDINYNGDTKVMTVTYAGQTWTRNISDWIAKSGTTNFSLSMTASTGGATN

## O=C(O[C@@H]1Cc2c(O)cc(O)cc2O[C@@H]1c1cc(O)c(O)c(O)c1)c1cc(O)c(O)c(O)c1 [EGCG]
  Kd: 4 µM
